Measurements: ChEMBL document CHEMBL3046911, “Serotonin transporter activity of imidazolidine-2,4-dione and imidazo[2,1-f]purine-2,4-dione derivatives in aspect of their acid-base properties” (Med Chem Res, 2012)

experiment: physchem

Row | SMILES | pKa
1 | O=C1NC2(CCc3ccccc32)C(=O)N1CCCN1CCN(c2ccccc2)CC1 (configuration not stated) | 10.5
2 | COc1ccccc1N1CCN(CCCN2C(=O)NC3(CCc4ccccc43)C2=O)CC1 (configuration not stated) | 9.6
3 | O=C1NC2(CCCc3ccccc32)C(=O)N1CCCN1CCN(c2cccc(Cl)c2)CC1 (configuration not stated) | 10.8
4 | O=C1NC2(CCCc3ccccc32)C(=O)N1CCCN1CCN(c2ccccc2)CC1 (configuration not stated) | 10.6
5 | COc1ccccc1N1CCN(CCCN2C(=O)NC3(CCCc4ccccc43)C2=O)CC1 (configuration not stated) | 10.3
6 | O=C1NC2(CCc3ccccc32)C(=O)N1CCCN1CCN(c2cccc(Cl)c2)CC1 (configuration not stated) | 10.3
7 | O=C1NC2(CCc3ccccc32)C(=O)N1CCCN1CCN(c2cccc(C(F)(F)F)c2)CC1 (configuration not stated) | 9.96
8 | O=C1NC2(CCc3ccccc32)C(=O)N1CCCN1CCc2ccccc2C1 (configuration not stated) | 10.9
9 | O=C1NC2(CCCc3ccccc32)C(=O)N1CCCN1CCN(c2cccc(C(F)(F)F)c2)CC1 (configuration not stated) | 11.1
10 | O=C1NC2(CCCc3ccccc32)C(=O)N1CCCN1CCc2ccccc2C1 (configuration not stated) | 10.9
11 | Cn1c(=O)c2c(nc3n(CCCN4CCN(c5cccc(Cl)c5)CC4)ccn23)n(C)c1=O | 8.35

Next, values leading:

Row | pKa | SMILES
12 | 7.61 | Cc1cn2c3c(=O)n(C)c(=O)n(C)c3nc2n1CCCN1CCN(c2cccc(Cl)c2Cl)CC1
13 | 8.66 | Cc1cn2c3c(=O)n(C)c(=O)n(C)c3nc2n1CCCN1CCc2ccccc2C1
14 | 10.4 | Cn1c(=O)c2c(nc3n(CCCN4CCc5ccccc5C4)c(-c4ccccc4)cn23)n(C)c1=O
15 | 8.44 | COc1ccccc1N1CCN(CCCn2c(-c3ccccc3)cn3c4c(=O)n(C)c(=O)n(C)c4nc23)CC1
16 | 8.19 | COc1ccccc1N1CCN(CCCn2ccn3c4c(=O)n(C)c(=O)n(C)c4nc23)CC1
17 | 8.79 | Cn1c(=O)c2c(nc3n(CCCN4CCN(c5ccccc5)CC4)c(-c4ccccc4)cn23)n(C)c1=O
18 | 8.12 | Cc1cn2c3c(=O)n(C)c(=O)n(C)c3nc2n1CCCN1CCN(c2cccc(Cl)c2)CC1
19 | 10.6 | Cn1c(=O)c2c(nc3n(CCCN4CCN(c5cccc(Cl)c5)CC4)c(-c4ccccc4)cn23)n(C)c1=O
20 | 8.09 | Cn1c(=O)c2c(nc3n(CCCN4CCN(c5ccccc5)CC4)ccn23)n(C)c1=O
21 | 7.55 | Cc1cn2c3c(=O)n(C)c(=O)n(C)c3nc2n1CCCN1CCN(c2ccccc2)CC1
22 | 7.61 | COc1ccccc1N1CCN(CCCn2c(C)cn3c4c(=O)n(C)c(=O)n(C)c4nc23)CC1
